From the supplement of paper PMC11061612

How the values were obtained:
Assay in all cases: combination Emax (second highest fraction inhibited in the dose matrix, 72 h); higher = more inhibition; extreme values may be limits of the assay
[1] = tested on: SUP-T1 (T-Lymphoblastic Leukemia)
Procedure, shortened: (§1)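 Cell lines grown in DMEM/F12 or RPMI with 10% FBS were plated in 1536-well plates and held 24 hours at 37°C, 5% CO2 before 72 hours of exposure to two-drug dose matrices, with DMSO typically at 0.2%. CellTiter-Glo 2.0 luminescence gave viability, which was converted to inhibition. Vehicle wells were set to 0 and blank wells to 1. Combination Emax is the second-highest inhibition in the matrix, and Bliss excess is the observed combination effect minus the expected EA + EB − EA·EB, where EA and EB are the single-agent effects.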

[2] = tested on: K5 (Thyroid Gland Carcinoma)
Procedure, shortened: as §1

[3] = tested on: NCI-H69 (Small Cell Lung Carcinoma)
Procedure, shortened: as §1

[4] = tested on: SW1271 (Small Cell Lung Carcinoma)
Procedure, shortened: as §1

SH-4 (Melanoma) = tested on: SH-4 (Melanoma)
Procedure, shortened: as §1

[5] = tested on: HDLM-2 (Hodgkin's Lymphoma)
Procedure, shortened: as §1

NCI-H2795 (Mesothelioma) = tested on: NCI-H2795 (Mesothelioma)
Procedure, shortened: as §1

NB14 (Neuroblastoma) = tested on: NB14 (Neuroblastoma)
Procedure, shortened: as §1

[6] = tested on: MDA-MB-468 (Breast Carcinoma)
Procedure, shortened: as §1

[7] = tested on: EN (Endometrial Carcinoma)
Procedure, shortened: as §1

[8] = tested on: CAPAN-1 (Pancreatic Carcinoma)
Procedure, shortened: as §1

[9] = tested on: SK-OV-3 (Ovarian Carcinoma)
Procedure, shortened: as §1

[10] = tested on: HO-1-u-1 (Oral Cavity Carcinoma)
Procedure, shortened: as §1

[11] = tested on: RKO (Colorectal Carcinoma)
Procedure, shortened: as §1

[12] = tested on: SW626 (Colorectal Carcinoma)
Procedure, shortened: as §1

[13] = tested on: OVCAR-8 (Ovarian Carcinoma)
Procedure, shortened: as §1

[14] = tested on: MHH-PREB-1 (B-Cell Non-Hodgkin's Lymphoma)
Procedure, shortened: as §1

[15] = tested on: LB771-HNC (Head and Neck Carcinoma)
Procedure, shortened: as §1

[16] = tested on: HCC-15 (Squamous Cell Lung Carcinoma)
Procedure, shortened: as §1

[17] = tested on: KYSE-410 (Esophageal Squamous Cell Carcinoma)
Procedure, shortened: as §1

SMILES | combination Emax [1] | combination Emax [2] | combination Emax [3] | combination Emax [4] | combination Emax (SH-4 (Melanoma)) | combination Emax [5] | combination Emax (NCI-H2795 (Mesothelioma)) | combination Emax (NB14 (Neuroblastoma)) | combination Emax [6] | combination Emax [7] | combination Emax [8] | combination Emax [9] | combination Emax [10] | combination Emax [11] | combination Emax [12] | combination Emax [13] | combination Emax [14] | combination Emax [15] | combination Emax [16] | combination Emax [17]
Cc1nc(-c2cn3c(n2)-c2ccc(-c4cnn(C(C)(C)C(N)=O)c4)cc2OCC3)n(C(C)C)n1 [Taselisib] + O=C(Nc1ccc2[nH]nc(-c3ccncc3)c2c1)[C@@H]1CCN(CC(=O)N2CCN(c3ccc(-c4ncccn4)cc3)CC2)C1 [SCH772984] (first compound max 10 µM, 7x7, partner max 5 µM) | 0.609 | 0.954 | 0.716 | 0.531 | 0.921 | 0.345 | 1 | 0.697 | 0.747 | 0.619 | 0.77 | 0.69 | 0.933 | 0.961 | – | – | – | – | – | –
COc1nnc2ccc(N3CCC(c4ccc(OCCN5CCN(C)C(=O)[C@H]5C)cc4)CC3)nn12 [AZD5153] + Cn1cnc2c(F)c(Nc3ccc(Br)cc3Cl)c(C(=O)NOCCO)cc21 [Selumetinib] (first compound max 1 µM, 7x7, partner max 10 µM) | 0.718 | 0.845 | 0.543 | 0.676 | 0.953 | 0.393 | 0.853 | 0.892 | – | 0.289 | 0.664 | 0.404 | 0.558 | 0.88 | 0.881 | 0.759 | 0.459 | 0.475 | 0.693 | 0.345
C=CCn1c(=O)c2cnc(Nc3ccc(N4CCN(C)CC4)cc3)nc2n1-c1cccc(C(C)(C)O)n1 [AZD1775] + CCc1c2c(nc3ccc(O)cc13)-c1cc3c(c(=O)n1C2)COC(=O)[C@]3(O)CC [SN-38] (first compound max 1 µM, partner max 0.3 µM) | 0.84 | 0.594 | 0.748 | 0.62 | 0.607 | 0.778 | 0.779 | 0.997 | 0.828 | 0.699 | 0.799 | 0.525 | 0.869 | 0.966 | – | – | – | – | – | –
C[C@@H](c1ccc2nccn2c1)n1nnc2ncc(-c3cnn(C)c3)nc21 [Savolitinib] + CC1(C)CCC(CN2CCN(c3ccc(C(=O)NS(=O)(=O)c4ccc(NCC5CCOCC5)c([N+](=O)[O-])c4)c(Oc4cnc5[nH]ccc5c4)c3)CC2)=C(c2ccc(Cl)cc2)C1 [Venetoclax] (first compound max 1 µM, 7x7, partner max 1 µM) | 0.131 | 0.0879 | 0.372 | 0.161 | 0.139 | 0.28 | 0.22 | 0.114 | – | 0.238 | 0.181 | 0.121 | 0.0993 | 0.166 | 0.129 | 0.0706 | 0.0731 | 0.115 | 0.175 | 0.124
CS(=O)(=O)CCNCc1ccc(-c2ccc3ncnc(Nc4ccc(OCc5cccc(F)c5)c(Cl)c4)c3c2)o1 [Lapatinib] + Cn1cnc2c(F)c(Nc3ccc(Br)cc3Cl)c(C(=O)NOCCO)cc21 [Selumetinib] (first compound max 10 µM, 7x7, partner max 10 µM) | 0.53 | 0.597 | 0.425 | 0.646 | 0.868 | 0.372 | 0.893 | 0.898 | 0.882 | 0.345 | 0.615 | 0.347 | 0.789 | 0.763 | – | – | – | – | – | –
COc1nnc2ccc(N3CCC(c4ccc(OCCN5CCN(C)C(=O)[C@H]5C)cc4)CC3)nn12 [AZD5153] + C=CCn1c(=O)c2cnc(Nc3ccc(N4CCN(C)CC4)cc3)nc2n1-c1cccc(C(C)(C)O)n1 [AZD1775] (first compound max 1 µM, partner max 1 µM) | 0.821 | 0.719 | 0.678 | 0.649 | 0.65 | 0.732 | 0.597 | 1 | – | 0.525 | 0.549 | 0.506 | 0.735 | 0.841 | 0.75 | 0.863 | 0.825 | 0.627 | 0.674 | 0.491
C[C@@H]1COCCN1c1cc(C2([S@](C)(=N)=O)CC2)nc(-c2ccnc3[nH]ccc23)n1 [AZD6738] + O=C(c1cc(Cc2n[nH]c(=O)c3ccccc23)ccc1F)N1CCN(C(=O)C2CC2)CC1 [Olaparib] (first compound max 10 µM, 7x7, partner max 10 µM) | 0.767 | 0.627 | 0.585 | 0.666 | 0.419 | 0.437 | 0.745 | 0.94 | – | 0.535 | 0.442 | 0.6 | 0.793 | 0.845 | 0.455 | 0.935 | 0.679 | 0.483 | 0.258 | 0.239
COc1nnc2ccc(N3CCC(c4ccc(OCCN5CCN(C)C(=O)[C@H]5C)cc4)CC3)nn12 [AZD5153] + CCN(CCO)CCCOc1ccc2c(Nc3cc(CC(=O)Nc4cccc(F)c4)[nH]n3)ncnc2c1 [AZD2811] (first compound max 1 µM, 7x7, partner max 1 µM) | 0.786 | 0.714 | 0.782 | 0.534 | 0.613 | 0.434 | 0.497 | 0.858 | – | 0.454 | 0.353 | 0.376 | 0.578 | 0.812 | 0.735 | 0.804 | 0.514 | 0.519 | 0.74 | 0.313
Cn1cnc2c(F)c(Nc3ccc(Br)cc3Cl)c(C(=O)NOCCO)cc21 [Selumetinib] + C=CCn1c(=O)c2cnc(Nc3ccc(N4CCN(C)CC4)cc3)nc2n1-c1cccc(C(C)(C)O)n1 [AZD1775] (first compound max 10 µM, partner max 1 µM) | 0.809 | 0.596 | 0.133 | 0.565 | 0.94 | 0.71 | 0.851 | 1 | – | 0.587 | 0.59 | 0.365 | 0.456 | 0.904 | 0.724 | 0.872 | 0.777 | 0.452 | 0.612 | 0.431
CCc1c2c(nc3ccc(O)cc13)-c1cc3c(c(=O)n1C2)COC(=O)[C@]3(O)CC [SN-38] + O=C(c1cc(Cc2n[nH]c(=O)c3ccccc23)ccc1F)N1CCN(C(=O)C2CC2)CC1 [Olaparib] (first compound max 0.3 µM, 7x7, partner max 10 µM) | 0.84 | 0.505 | 0.692 | 0.758 | 0.48 | 0.473 | 0.771 | 0.967 | 0.773 | 0.18 | 0.818 | 0.535 | 0.695 | 0.86 | 0.559 | – | – | 0.0947 | – | 0.423
CN(CCO)CC[C@H](CSc1ccccc1)Nc1ccc(S(=O)(=O)NC(=O)c2ccc(N3CCC([C@@H](O)c4ccccc4-c4ccc(Cl)cc4)CC3)cc2)cc1S(=O)(=O)C(F)(F)F [AZD4320] + C=CCn1c(=O)c2cnc(Nc3ccc(N4CCN(C)CC4)cc3)nc2n1-c1cccc(C(C)(C)O)n1 [AZD1775] (first compound max 1 µM, partner max 1 µM) | 0.909 | 0.485 | 0.858 | 0.814 | 0.5 | 0.989 | 0.53 | 1 | 0.799 | 0.567 | 0.732 | 0.628 | 0.897 | 0.617 | 0.748 | 0.908 | – | 0.644 | 0.946 | 0.796
CS(=O)(=O)CCNCc1ccc(-c2ccc3ncnc(Nc4ccc(OCc5cccc(F)c5)c(Cl)c4)c3c2)o1 [Lapatinib] + NC1(c2ccc(-c3nc4ccn5c(=O)[nH]nc5c4cc3-c3ccccc3)cc2)CCC1 [MK-2206] (first compound max 10 µM, 7x7, partner max 10 µM) | 0.912 | 0.95 | 0.956 | 0.739 | 0.901 | 0.625 | 0.948 | 0.941 | 0.959 | 0.512 | 0.331 | 0.658 | 0.943 | 0.931 | – | – | – | – | – | –
Cc1c2c(nn1C)CSCc1cc(n(C)n1)CSc1cc(c3ccccc3c1)OCCCc1c(C(=O)O)n(C)c3c-2c(Cl)ccc13 [AZD5991] + CN(C)CCCOc1ccc(-c2ccc3ncc4c(c3c2)n(C2CCOCC2)c(=O)n4C)cn1 [AZD0156] (first compound max 1 µM, 7x7, partner max 1 µM) | 0.371 | 0.183 | 0.314 | 0.27 | 0.316 | 0.985 | 0.812 | 0.771 | 0.452 | 0.572 | 0.252 | 0.342 | 0.245 | 0.225 | 0.223 | 0.219 | – | 0.442 | 0.303 | 0.236
